Data from publication PMC3565751, “The Feasibility of Enzyme Targeted Activation for Amino Acid/Dipeptide Monoester Prodrugs of Floxuridine; Cathepsin D as a Potential Targeted Enzym” (Molecules, 2012).

Key:
[1] = system: Capan-2 cell homogenates and cytosolic enzyme extracts; assay: Prodrug stability in cytosolic enzyme extract versus whole cell homogenate of Capan-2 cells; assay type: in vitro ADME
Protocol: In stability studies of test compounds in cell homogenates, the location of enzymes in living cells is not considered and the inaccessible enzymes in vivo condition may be able to degrade those analytes in this in vitro setting. Therefore, the result of prodrug stabilities in cell homogenate may be different to one in vivo, where all enzymes are arranged in all specific locations. The experiments of prodrug activation concerning the location of enzymes in cells were performed at 37 °C in Capan-2 cell homogenates and in cytosolic enzyme extracts. For the comparison purpose, the same experiments were performed at 37 °C in Caco-2 cell homogenates and in cytosolic enzyme extracts. […] The difference between them was minimal (1.4- to 2.5 fold). […] In Capan-2 cells, the stabilities of 5′-O-L-phenylalanyl-L-glycylfloxuridine and 5′-O-L-phenylalanylfloxuridine were improved 7.4- and 7.3-fold, while the ones of 5′-O-L- phenylalanyl-L-tyrosylfloxuridine and 5′-O-L-glycyl-L-leucylfloxuridine were declined 3.9- and 6.0-fold, respectively.
(§1) Preparation of Cytosolic Enzyme Extract. Confluent Caco-2 cells and Capan-2 cells (2 plates; 150 mm × 25 mm plate) were rinsed with saline twice. The cells were washed off with 1 mL of pH 7.4 phosphate buffer (10 mmol/L) and the enzymes were extracted through 30 gauge needle 10 times in ice-cold bath. Cell suspension was spun at 10,000 × g for 2 h at 4 °C and the supernatant was spun at 39,000 × g for 2 h at 4 °C. Protein amount was quantified with the Bio-Rad (Hercules, CA, USA) DC Protein Assay using bovine serum albumin as a standard. The protein amount was adjusted to 500 µg/mL and the hydrolysis reactions were carried out in 96-well plates (Corning). Caco-2 cells and Capan-2 cell suspensions (250 µL) were placed in triplicate wells either presence or absence of various inhibitors, the reactions were started with the addition of substrate (200 µM), and wells were incubated at 37 °C for 120 min (time points; 0, 5, 10, 30, 60, and 120 min). At each time point, aliquot sample (35 µL) was removed and added to 150 µL of acetonitrile (ACN) with 0.1% TFA to prevent the further degradation. The mixtures were filtered with a 0.45 µm filters at 1,000 × g for 10 min at 4 °C. The filtrate wasthen analyzed via reverse-phaseHPLC.
(§2) The initial rates of hydrolysis were used to obtain the apparent first-order rate constants and estimate the half-lives. The apparent first-order degradation rate constants of various floxuridine prodrugs at 37 °C were determined by plotting the logarithm of prodrug remaining as a function of time. The slopes of these plots are related to the rate constant, k, and given by:
(§3) The concentrations of prodrugs and their metabolites were determined on a Waters HPLC system (Waters, Inc., Milford, MA, USA). The HPLC system consisted of two Waters pumps (model 515), a Waters autosampler (WISP model 712), and a Waters UV detector (996 photodiode array detector). The system was controlled by Waters Millennium 32 software (version 3.0.1). Samples were injected onto a Waters Xterra C18 reverse-phase column (5 µm, 4.6 × 250 mm) equipped with a guard column. The compounds were eluted using gradient method. All prodrugs were run with the solvent B gradient changing 0% to 56% at a rate of 2%/min during a 28-min run. Standard curves generated for each prodrug and their parent drugs were used for quantitation of integrated area under peaks.

[2] = parameters: method as in PMID 18719516; settings: pH 7.4 phosphate buffer; mean ± s.d.; ref [50]; cited from earlier work
Capan-2 cell homogenate = assay: Prodrug hydrolysis in Capan-2 cell homogenate with the presence and the absence of selective enzyme inhibitors; assay type: in vitro ADME; settings: 37 °C; for Half Life, DPP 3 Inhibitor: Capan-2 cell homogenate with 1,10-phenanthroline; for Half Life, DPP 3 Inhibitor / Half Life, TPP 2 Inhibitor / Half Life, Cathepsin D Inhibitor / Half Life, Aminopeptidase Inhibitor: pH 7.4; for Half Life, TPP 2 Inhibitor: Capan-2 cell homogenate with H-Ala-Ala-Phe-CMK CF3CO2H; for Half Life, Cathepsin D Inhibitor: Capan-2 cell homogenate with pepstatin A; for Half Life, Aminopeptidase Inhibitor: Capan-2 cell homogenate with puromycin; for Half Life, Capan-2 Cell Homogenate: no inhibitor, pH 7.4 phosphate buffer, 200 µM substrate, mean ± s.d.
Protocol: Hydrolysis StudiesPreparation of Capan-2 cell homogenates. Preparation of cell homogenates has been reported previously. Confluent Capan-2 cells (2 plates; 150 mm × 25 mm plate) were rinsed with saline twice. The cells were washed off with 5 mL of pH 7.4 phosphate buffer (10 mmol/L) and the lysed cells by ultrasonication (Micro ultrasonic cell disrupter Model KT40, Kontes, Vineland, NJ, USA) were spun down by centrifugation.
as §1, §2
k = 2.303 × slope (log C vs. time) (1)
The degradation half-lives were then estimated by the equation: […]
as §3

Capan-2 cell lines = assay: Cell proliferation (XTT) assay; assay type: cell-based; settings: 4 mmol/L, 4 h drug treatment
Protocol: The percentage of growth inhibition for amino acid/dipeptide monoester prodrugs of floxuridine in Capan-2 cell was evaluated via 2,3-bis[2-methoxy-4-nitro-5-sulfophenyl]-2H-tetrazolium-5-carboxanilideinner salt (XTT) assays (Figure 3). The growth inhibitory effect of tested floxuridine prodrugs after 4 h drug treatment range from 0.0–91.1% at 4 h, 0.0–84.2% at 8 h, and 41.8–84.8% at 24 h in Capan-2 cell lines. […] While specific activation enzymes for 5′-O-L-leucyl-L-glycylfloxuridine and 5′-O-L-phenylalanylfloxuridine have not been identified, those enzymes may be highly localized at the plasma membrane and cytosol. Thus, the activation of those prodrugs took place immediately after translocation of prodrugs into the cells and started inhibiting tumor growth. Leucine and phenylalanine are reportedly good substrates for aminopeptidases and carboxylesterase, respectively.
Cell proliferation studies were conducted with Capan-2 cell lines. The cells were seeded into 96-well plates at […] per well and allowed to attach/grow for 24 h before drug solutions were added. The culture medium (RPMI-1640 + 10% fetal bovine serum) was removed and the cells were gently washed once with sterile pH 6.0 uptake buffer (145 mM NaCl, 0.5 mM MgCl2, 1 mM NaH2PO4, 1 mM CaCl2, 3 mM KCl, 5 mM glucose, and 5 mM MES). Floxuridine prodrugs and floxuridine were diluted in pH 6.0 uptake buffer to 4 mmol/L using no drug as a 100% viability control. The wash buffer was removed and 25 µL drug solution per well were added and incubated at 37 °C for 4 h in the cell incubator. After this time, the drug solutions were removed and the cells were again gently washed twice with sterile uptake buffer. RPMI-1640 was then added to each well after washing. The cells were allowed to recover for 4 h, 8 h, or 24 h before evaluating cell viability via 2,3-bis[2-methoxy-4-nitro-5-sulfophenyl]-2H-tetrazolium-5-carboxanilide inner salt (XTT) assays. […] Absorbance readings at 450 nm were recorded.

human cathepsin D = target: T1, human cathepsin D (Homo sapiens, UniProt P07339); assay: Prodrug stability with human cathepsin D; assay type: biochemical; settings: pH 7.4 phosphate buffer, 37 °C, 200 µM substrate
T1 construct: cathepsin B (human liver), and cathepsin D (human liver) were obtained from Sigma Chemical Co; purchased Sigma Chemical Co (St. Louis, MO, USA); host or cells: human liver (tissue-derived)
T1 sequence (P07339 169-412 limits assumed): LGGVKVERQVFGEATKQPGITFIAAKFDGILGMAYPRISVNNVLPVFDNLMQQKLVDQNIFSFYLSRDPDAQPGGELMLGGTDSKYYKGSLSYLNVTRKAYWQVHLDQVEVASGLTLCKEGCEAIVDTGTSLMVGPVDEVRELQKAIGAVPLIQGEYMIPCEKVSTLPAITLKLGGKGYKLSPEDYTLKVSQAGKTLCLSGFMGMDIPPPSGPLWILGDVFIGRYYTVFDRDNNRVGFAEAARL
T1 sequence (P07339 65-162 limits assumed): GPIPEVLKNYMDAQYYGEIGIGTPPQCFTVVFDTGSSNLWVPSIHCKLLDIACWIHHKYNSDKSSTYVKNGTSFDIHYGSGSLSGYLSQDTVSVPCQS
Text: (§4) The high expression levels of cathepsins in tumors have been reported. It has been investigated if the protein levels of cathepsin B and D would associate with pathological parameters in order to assess the difference in protein levels of cathepsins as possible tumor biomarkers. Cathepsin B, one of the highest gene expressions in enzymes of Capan-2 cell, is a cysteine endopeptidase and reportedly has similar activity to carboxypeptidase and peptidyl-dipeptidase. On the other hand, cathepsin D has been reported that it preferentially hydrolyzes the peptide bond of bulky hydrophobic amino acids and the peptide bond between Phe-Phe of Bz-Arg-Gly-Phe-Phe-Pro-4MbNA [75, 76, 77]. The metabolic stability of floxuridine prodrugs was assessed using human cathepsin B and D in pH 7.4 phosphate buffer. […] However, the enzyme specificity between cathepsin B and D in prodrug activation for those two prodrugs was not observed.
(§5) Prodrug stability with Cathepsin B and D. Lyophilized enzyme powder was dissolved and adjusted to 2.5 mg/mL of pure enzyme, human cathepsin B and D. The hydrolysis reactions were immediately started by adding substrates (200 µM) in 96-well plates (Corning). The reactions were carried out at 37 °C for 120 min (time points; 0, 5, 10, 30, 60, and 120 min). At each time point, aliquot sample (35 µL) was removed and added to 150 µL of acetonitrile (ACN) with 0.1% TFA. The mixtures were filtered with a 0.45 µm filters at 1,000 × g for 10 min at 4 °C. The filtrate was then analyzed via reverse-phase HPLC.
(§6) The initial rates of hydrolysis were used to obtain the apparent first-order rate constants and estimate the half-lives. The apparent first-order degradation rate constants of various floxuridine prodrugs at 37 °C were determined by plotting the logarithm of prodrug remaining as a function of time. […]
(§7) The concentrations of prodrugs and their metabolites were determined on a Waters HPLC system (Waters, Inc., Milford, MA, USA). […] Standard curves generated for each prodrug and their parent drugs were used for quantitation of integrated area under peaks.

human cathepsin B = target: T2, human cathepsin B (Homo sapiens, UniProt P07858); assay: Prodrug stability with human cathepsin B; assay type: biochemical; settings: pH 7.4 phosphate buffer, 37 °C, 200 µM substrate
T2 construct: cathepsin B (human liver), and cathepsin D (human liver) were obtained from Sigma Chemical Co; purchased Sigma Chemical Co (St. Louis, MO, USA); host or cells: human liver (tissue-derived)
Text: as §4, §5, §6, §7

| SMILES | Hydrolysis products detected in cell homogenates and cytosolic enzyme extracts [1] | Fold longer half life (stability improved) in cytosolic extract than in Capan-2 cell homogenate ([1]; 37 °C, pH 7.4 phosphate buffer) | Half Life, Phosphate Buffer pH 7.4 [2] | Half Life, DPP 3 Inhibitor (Capan-2 cell homogenate) | Half Life, TPP 2 Inhibitor (Capan-2 cell homogenate) | Half Life, Cathepsin D Inhibitor (Capan-2 cell homogenate) | Half Life, Aminopeptidase Inhibitor (Capan-2 cell homogenate) | Half Life, Capan-2 Cell Homogenate (Capan-2 cell homogenate) | Growth inhibition of cancer cells at 4 h and 8 h (Capan-2 cell lines) | Stability (degradation) against cathepsin D compared with absence of enzyme (human cathepsin D) | Stability (degradation) against cathepsin B compared with absence of enzyme (human cathepsin B) | Onset of growth inhibition of tumor cells (Capan-2 cell lines) |
| --- | --- | --- | --- | --- | --- | --- | --- | --- | --- | --- | --- | --- |
| N[C@@H](Cc1ccccc1)C(=O)NCC(=O)OC[C@H]1O[C@@H](n2cc(F)c(=O)[nH]c2=O)C[C@@H]1O [5'-O-L-phenylalanyl-L-glycyl-floxuridine] | only floxuridine was detected | 7.4 fold | 132.1 ± 10.2 min | 30.1 ± 10.0 min | 19.6 ± 0.4 min | 10.2 ± 3.0 min | 25.7 ± 0.4 min | 4.3 ± 0.9 min | did not exhibit the growth inhibition of cancer cells | significant degradation | significant degradation | – |
| CC(C)C[C@H](N)C(=O)NCC(=O)OC[C@H]1O[C@@H](n2cc(F)c(=O)[nH]c2=O)C[C@@H]1O [5'-O-L-leucyl-L-glycylfloxuridine] | only floxuridine was detected | – | 23.1 ± 4.1 min | 32.2 ± 9.3 min | 5.6 ± 0.6 min | 7.9 ± 0.7 min | 14.0 ± 4.3 min | 3.9 ± 1.1 min | – | – | – | immediately inhibited the growth of tumor cells |
